{"source": "patent US20250296959A1", "about": "“B7-H3 TARGETING PEPTIDES AND CONSTRUCTS THEREOF” (Mariana Oncology Inc., priority 2024, published 2025)", "note": "Positions of bridges follow the written chain, without caps; N, C: chain ends. Non-standard residues stand in square brackets, D forms with d. Residues, ends and D or L forms follow the SMILES beside them. *: point of attachment. DOTA = O=C(O)CN1CCN(CC(=O)O)CCN(CC(=O)*)CCN(CC(=O)O)CC1; aIle = CC[C@@H](C)[C@H](N)C(=O)O; Aad = N[C@@H](CCCC(=O)O)C(=O)O; Gly(cPr) = N[C@H](C(=O)O)C1CC1; aThr = C[C@H](O)[C@H](N)C(=O)O; Pen = CC(C)(S)[C@H](N)C(=O)O; hLeu = CC(C)CC[C@H](N)C(=O)O; Nle = CCCC[C@H](N)C(=O)O"}
{"target": "T1, human 4lg B7-H3 (Homo sapiens, UniProt Q5ZPR3)", "T1 sequence (Q5ZPR3 29-534)": "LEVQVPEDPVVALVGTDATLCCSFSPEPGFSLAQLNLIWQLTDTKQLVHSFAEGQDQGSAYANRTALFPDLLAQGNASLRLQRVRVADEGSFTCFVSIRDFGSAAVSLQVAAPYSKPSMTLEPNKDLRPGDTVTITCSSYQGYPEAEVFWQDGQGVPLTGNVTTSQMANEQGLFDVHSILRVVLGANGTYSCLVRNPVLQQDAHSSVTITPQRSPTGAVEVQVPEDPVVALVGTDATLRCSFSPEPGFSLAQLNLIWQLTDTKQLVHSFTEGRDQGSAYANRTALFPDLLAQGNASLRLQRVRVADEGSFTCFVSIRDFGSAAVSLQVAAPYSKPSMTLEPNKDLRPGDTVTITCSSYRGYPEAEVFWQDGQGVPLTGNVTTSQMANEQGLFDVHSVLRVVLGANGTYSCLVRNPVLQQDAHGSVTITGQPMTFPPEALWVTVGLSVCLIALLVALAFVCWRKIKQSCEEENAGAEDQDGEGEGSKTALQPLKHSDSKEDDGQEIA", "test": "Affinity determination by surface plasmon resonance (SPR) to 4Ig B7-H3", "settings": "SPR KD—25° C., 4Ig B7-H3; 25° C. flow cell temperature", "units": {"Kd": "nM"}}
{"smiles": "CCCC[C@H](NC(C)=O)C(=O)N[C@@H](Cc1ccc(O)cc1)C(=O)N[C@H]1CSSC[C@@H](C(=O)N[C@@H](Cc2c[nH]c3ccccc23)C(=O)N[C@@H](Cc2ccccc2)C(=O)N[C@H](C(=O)N[C@H](CCCCNC(=O)CN2CCN(CC(=O)O)CCN(CC(=O)O)CCN(CC(=O)O)CC2)C(=O)O)[C@@H](C)O)NC(=O)[C@H](Cc2ccc(O)cc2)NC(=O)[C@H](C(C)C)NC(=O)[C@H](CC(=O)O)NC(=O)[C@H](CCCC(=O)O)NC(=O)[C@H](CCCCN)NC(=O)CNC(=O)[C@H](C(C)C)NC1=O", "note": "[compound 116, Ac-Nle-Y-C-V-G-K-HomoGlu-D-V-Y-C-W-F-Thr-dLys(DOTA)-COOH] (Ac-[Nle]YCVGK[Aad]DVYCWFT[dK](DOTA)-OH; disulfide 3-11)", "Kd": "10 to 100"}
{"smiles": "CC(=O)N[C@@H](CCC(C)C)C(=O)N[C@@H](Cc1ccc(O)cc1)C(=O)N[C@@H]1C(=O)N[C@@H](C(C)C)C(=O)NCC(=O)N[C@@H](CCCCN)C(=O)N[C@@H](Cc2ccc(O)cc2)C(=O)N[C@@H](CC(=O)O)C(=O)N[C@@H](C(C)C)C(=O)N[C@@H](Cc2ccc(O)cc2)C(=O)N[C@H](C(=O)N[C@@H](Cc2c[nH]c3ccccc23)C(=O)N[C@@H](Cc2ccccc2)C(=O)N[C@H](C(=O)N[C@H](CCCCNC(=O)CN2CCN(CC(=O)O)CCN(CC(=O)O)CCN(CC(=O)O)CC2)C(N)=O)[C@@H](C)O)CSSC1(C)C", "note": "[compound 117, Ac-hLeu-Y-Pen-V-G-K-Y-D-V-Y-C-W-F-Thr-dLys(DOTA)-CONH2] (Ac-[hLeu]Y[Pen]VGKYDVYCWFT[dK](DOTA)-NH2; disulfide 3-11)", "Kd": "10 to 100"}
{"smiles": "CC(=O)N[C@@H](CCC(C)C)C(=O)N[C@@H](Cc1ccc(O)cc1)C(=O)N[C@H]1CSSC[C@@H](C(=O)N[C@@H](Cc2c[nH]c3ccccc23)C(=O)N[C@@H](Cc2ccccc2)C(=O)N[C@H](C(=O)N[C@H](CCCCNC(=O)CN2CCN(CC(=O)O)CCN(CC(=O)O)CCN(CC(=O)O)CC2)C(N)=O)[C@@H](C)O)NC(=O)[C@H](Cc2ccc(O)cc2)NC(=O)[C@H](C(C)C)NC(=O)[C@H](CC(=O)O)NC(=O)[C@H](Cc2ccc(O)cc2)NC(=O)[C@H](CCCCN)NC(=O)CNC(=O)[C@H](C2CC2)NC1=O", "note": "[compound 119, Ac-hLeu-Y-C-Cpg-G-K-Y-D-V-Y-C-W-F-Thr-dLys(DOTA)-CONH2] (Ac-[hLeu]YC[Gly(cPr)]GKYDVYCWFT[dK](DOTA)-NH2; disulfide 3-11)", "Kd": "10 to 100"}
{"smiles": "CC(=O)N[C@@H](CCC(C)C)C(=O)N[C@@H](Cc1ccc(O)cc1)C(=O)N[C@H]1CSSC[C@@H](C(=O)N[C@@H](Cc2c[nH]c3ccccc23)C(=O)N[C@@H](Cc2ccccc2)C(=O)N[C@H](C(=O)N[C@H](CCCCNC(=O)CN2CCN(CC(=O)O)CCN(CC(=O)O)CCN(CC(=O)O)CC2)C(N)=O)[C@@H](C)O)NC(=O)[C@H](Cc2ccc(O)cc2)NC(=O)[C@H](C(C)C)NC(=O)[C@H](CC(=O)O)NC(=O)[C@H](Cc2ccc(O)cc2)NC(=O)[C@H](CCCCN)NC(=O)CNC(=O)[C@H]([C@H](C)O)NC1=O", "note": "[compound 120, Ac-hLeu-Y-C-alloThr-G-K-Y-D-V-Y-C-W-F-Thr-dLys(DOTA)-CONH2] (Ac-[hLeu]YC[aThr]GKYDVYCWFT[dK](DOTA)-NH2; disulfide 3-11)", "Kd": "10 to 100"}
{"smiles": "CC[C@@H](C)[C@@H]1NC(=O)[C@@H](NC(=O)[C@H](Cc2ccc(O)cc2)NC(=O)[C@H](CCC(C)C)NC(C)=O)CSSC[C@@H](C(=O)N[C@@H](Cc2c[nH]c3ccccc23)C(=O)N[C@@H](Cc2ccccc2)C(=O)N[C@H](C(=O)N[C@H](CCCCNC(=O)CN2CCN(CC(=O)O)CCN(CC(=O)O)CCN(CC(=O)O)CC2)C(N)=O)[C@@H](C)O)NC(=O)[C@H](Cc2ccc(O)cc2)NC(=O)[C@H](C(C)C)NC(=O)[C@H](CC(=O)O)NC(=O)[C@H](Cc2ccc(O)cc2)NC(=O)[C@H](CCCCN)NC(=O)CNC1=O", "note": "[compound 121, Ac-hLeu-Y-C-allolle-G-K-Y-D-V-Y-C-W-F-Thr-dLys(DOTA)-CONH2] (Ac-[hLeu]YC[aIle]GKYDVYCWFT[dK](DOTA)-NH2; disulfide 3-11)", "Kd": "1 to 10"}
